The target of assay [1] is HIV-1 frameshift-inducing RNA stem-loop (SEQ ID NO:1). Kind of assay: Fluorescence titration of Cy-3 labeled HIV-1 RNA stem-loop. The conditions noted are these: stem-loop 4 × 10^−7 M, PBS buffer, 25° C. The assay is classed as binding. On the procedure: The binding of dicarba analogs to the HIV-1 frameshift-inducing RNA was measured using fluorescence spectroscopy. Fluorescence titrations were performed on a Varian Cary eclipse fluorescence spectrophotometer using 1 cm path-length quartz fluorescence cell. The solution of Cy-3 labeled HIV-1 RNA stem-loop in PBS buffer (400 μL, 400 nM) was taken in the cell and excited with a wavelength of 550 nm. A PMT voltage of 715 V was used for collecting the fluorescence data and the emission spectrum was collected from 555 to 600 nm wavelength range. The ligand solution in PBS buffer was added to the target RNA in the cell in either 2 or 4 μL increments and was allowed to equilibrate for 10 minutes before recording the emission spectrum. Statistical analysis of the data was carried out using Origin 7 (OriginLab corporation). Binding constants were determined by fitting the data to one-site binding model equation.
A 5′-Cy3 labeled upper stem-loop of HIV-1 RNA (SEQ ID NO:1) was titrated with increasing amount of the dicarba analogs in a phosphate buffer (PBS, pH 7.4) using the same protocol to that described in Example 3 above. The fluorescence intensity of the labeled RNA stem-loop decreased as a function of the ligand concentration. […] Normally, one would expect a greater difference between the affinities of the two isomers.
To further evaluate the binding selectivity of dicarba analogs to the frameshift-inducing stem-loop, fluorescence titrations were repeated in the presence of twenty-fold excess concentration of yeast tRNA. […] In an interesting result it was discovered that the monomeric compound (5) also bound to the HIV-1 RNA stem-loop with similar affinity as that of the other analogs, but the binding affinity was diminished in the presence of tRNA. […] Quinoline is a known intercalator of nucleotide bases and has the capability to interact with RNA non-specifically. But it is the peptidic part of the molecule in ligands 5-5 E and 5-5 Z that imparts specificity to the interaction between the ligand and the RNA stem-loop. The peptidic part on monomer 5 is insufficient to impart specificity to the interaction as evident from the results.

For assay [2], the target named is (CUG) repeat RNA SEQ ID NO:7. Kind of assay: Filter binding assay (FBA), SEQ ID NO:7. The conditions noted are these: negative control; method (FBA or FT) not stated; read-out: KD for CUG repeat RNA (SEQ ID NO:7). The procedure: A filter binding assay system was utilized to provide a rapid initial assessment of binding affinity. All binding studies were performed in PBS pH 7.2+1 mM MgCl2 at 22° C. Various concentrations of small molecules were incubated with 10 nM FAM-labeled RNA in a total volume of 50 μl for 20 minutes. A slot blot apparatus was then assembled with a wet nitrocellulose filter, on top of a wet nylon filter, on top of filter paper. 40 μl of each binding mixture was then loaded into an individual well of the apparatus and allowed to penetrate the filters for 10 minutes. The peptidic disulfides selected from the DCL efficiently bind to the nitrocellulose filter. In contrast, the FAM-labeled RNA strands penetrate the nitrocellulose filter and are bound by the nylon filter. As such, RNA bound by the peptidic library members remains bound on the nitrocellulose filter, and unbound RNA passes to the nylon filter.
Densitometric analysis of the ratio of labeled RNA on the nitrocellulose to nylon filters allows quantification of binding (FIG. 15A). All binding isotherms were fit to the logistic binding model (Equation 1 above). The repetitive nature of the target sequences may in some cases result in binding stoichiometries that are more complex than a simple 1:1 interaction.
To test specificity and to confirm the determined binding affinities, filter binding assays and fluorescence titrations were performed with SEQ ID NOS: 7-11 (Table 5), and the HIV-1 frameshift stimulating RNA hairpin used in preceding Examples (SEQ ID NO:1, Table 5). Fluorescence titrations were performed using a Varian Cary Eclipse spectrophotometer. 2 μl of 50 or 500 μM small molecule were titrated into 400 μl of FAM labeled RNA sequences an allowed to equilibrate for at least 10 minutes, or until no change in fluorescence spectra was observed. Changes in fluorescence emission at 518 nm (excitation at 490 nm) were measured. Raw data were corrected for dilution dependant changes, and Em518 was plotted against small molecule concentration and fit to the one site binding equation y=(bmaz*x)/(KD+x).) Competition experiments utilizing target RNA (SEQ ID NO:7) and a 20-fold molar excess of total yeast tRNA were performed to measure non-specific RNA binding (Luedtke et al., “RNA-Ligand Interactions: Affinity and Specificity of Aminoglycoside Dimers and Acridine Conjugates to the HIV-1 Rev Response Element,” Biochemistry 42:11391-11403 (2003), which is hereby incorporated by reference in its entirety). Compound 1-1, the HIV-1 RNA ligand, served as a negative control.

As usually defined, the Kd is the concentration at which binding is half-saturated.

Molecules are shown by their SMILES. Where two headings read alike, the source gives them in different places.

Take `CCc1nc2ccccc2cc1C(=O)N[C@@H](CSSC[C@H](NC(=O)c1cc2ccccc2nc1CC)C(=O)N1CCC[C@H]1C(=O)N[C@@H](Cc1ccccc1)C(=O)NCCCN)C(=O)N1CCC[C@H]1C(=O)N[C@@H](Cc1ccccc1)C(=O)NCCCN` [dimer 1-1]: the Kd in assay [1] (8 μM tRNA (twenty-fold excess), read-out: Binding Affinity (Kd) in the presence of excess yeast tRNA) was 320 ± 70 nM; in assay [1] (fluorescence titration, read-out: Binding Affinity (Kd)) it was 350 ± 110 nM; in assay [2] it was > 40000 nM.

The values are drawn from US9212205B2, “Nucleic acid binding compounds and methods of use” (University of Rochester, priority 2007, dated 2015).
